Laboratory results as given in patent US10370333B2 (Sanford Burnham Prebys Medical Discovery Institute, priority 2012, dated 2019).

The compounds below were run against TNAP (Homo sapiens (Human), UniProt P05186) (assay: TNAP (PPi) inhibition assay, pyrophosphate as substrate).
Assay type: biochemical
Description: Expression plasmids containing a secreted epitope-tagged TNAP were transfected into COS-1 cells for transient expression. The medium was replaced with Opti-MEM 24 h later and serum-free media containing secreted proteins was collected 60 hours after electroporation. The medium was dialyzed against TBS containing 1 mM MgCl2 and […] (to remove phosphate) and filtered through a […] cellulose acetate filter.
To determine the inhibition selectivity for inhibitor candidates, human TNAP, PLAP or IAP were added to microtiter plates followed by addition of the substrate pNPP (0.5 mM) and activity was measured in 1 M DEA-HCl buffer, pH 9.8 or in 1 M Tris-HCl buffer, pH 7.5, containing 1 mM MgCl2 and 20 μM ZnCl2, in the presence of potential inhibitors (0-30 μM). TNAP, PLAP and IAP activities were adjusted to an approximate λA405 nm, equivalent to 1, measured after 30 min. Residual AP activity in the presence of inhibitors was expressed as percentage of the control activity. To investigate the mechanism of inhibition, double reciprocal plots of enzyme activity (expressed as mA405 nm min−1) vs. substrate concentration were constructed, in the presence of various concentrations of added inhibitors (0-30 μM). The y-axis intercepts of the 1/v vs. 1/[S] plots, were then plotted vs. [I] to graphically extract Ki values as the x-intercept in this plot. […] Inhibitors were further tested and sorted based on their kinetic properties at pH 7.4 using PPi, the relevant natural substrate of TNAP. […] Amounts of released phosphate were measured using the Biomol Green Reagent (Biomol Research Laboratories, Inc., Plymouth Meeting, Pa.).

IC50 [nM] | Compound
< 100 | COc1ccc(Br)cc1S(=O)(=O)Nc1cncc(-c2ccccn2)c1 [Example III-59, N-([2,3′-Bipyridin]-5′-yl)-5-bromo-2-methoxybenzenesulfonamide]
100 to 1000 | COc1ccc(OC)c(S(=O)(=O)Nc2cnc3ccc(CN(C)C)cc3c2)c1 [Example IX-15]
< 100 | COc1ccc(Cl)cc1S(=O)(=O)Nc1cncc(-c2cccs2)c1 [Example III-75, 5-Chloro-2-methoxy-N-(5-(thiophen-2-yl)pyridin-3-yl)benzenesulfonamide]
< 100 | CCCOC(=O)c1cncc(NS(=O)(=O)c2cc(OC)ccc2OC)c1 [Example IV-13, Propyl 5-(2,5-dimethoxyphenylsulfonamido)nicotinate]
100 to 1000 | COc1ccc(Br)cc1S(=O)(=O)Nc1cncc(-c2ccc(OCc3ccccc3)cc2)c1 [Example III-5, N-(5-(4-(Benzyloxy)phenyl)pyridin-3-yl)-5-bromo-2-methoxybenzenesulfonamide]
< 100 | COc1ccc(OC)c(S(=O)(=O)Nc2cncc(-c3ccoc3)c2)c1 [Example III-70, N-(5-(Furan-3-yl)pyridin-3-yl)-2,5-dimethoxybenzenesulfonamide]
100 to 1000 | COc1ccc(Cl)cc1S(=O)(=O)Nc1cncc(-c2ccccc2C(F)(F)F)c1
100 to 1000 | COc1ccc(OC)c(S(=O)(=O)Nc2cncc(-c3cccc(Cl)c3)c2)c1 [Example III-52, N-[5-(3-Chloro-phenyl)-pyridin-3-yl]-2,5-dimethoxy-benzenesulfonamide]
100 to 1000 | COc1ccc(-c2ccsc2)cc1S(=O)(=O)Nc1cccnc1 [Example I-8, 2-Methoxy-N-pyridin-3-yl-5-thiophen-3-yl-benzenesulfonamide]
< 100 | COc1ccc(Cl)cc1S(=O)(=O)Nc1cncc(C(=O)Oc2ccccc2)c1 [Example IV-10, Phenyl 5-(5-chloro-2-methoxyphenylsulfonamido)nicotinate]
< 100 | COC(=O)c1ccc(-c2cncc(NS(=O)(=O)c3cc(Cl)ccc3OC)c2)cc1 [Example III-30, 4-[5-(5-Chloro-2-methoxy-benzenesulfonylamino)-pyridin-3-yl]-benzoic Acid Methyl Ester]
< 100 | COc1ccc(Br)cc1S(=O)(=O)Nc1cncc(C(=O)OC2CCCCC2)c1 [Example IV-4, Cyclohexyl 5-(5-bromo-2-methoxyphenylsulfonamido)nicotinate]
< 100 | O=C(Oc1ccccc1)c1cncc(NS(=O)(=O)c2cc(Br)ccc2OC(F)(F)F)c1 [Example XII-12, Phenyl 5-(5-bromo-2-(trifluoromethoxy)phenylsulfonamido)nicotinate]
100 to 1000 | COCCNC(=O)c1ccc(OC)c(S(=O)(=O)Nc2cnc3ccccc3c2)c1 [Example II-20, 4-Methoxy-N-(2-methoxy-ethyl)-3-(quinolin-3-ylsulfamoyl)-benzamide]
< 100 | O=S(=O)(Nc1cncc(-c2cscn2)c1)c1cc(Cl)ccc1OC(F)(F)F [Example XI-28, 5-Chloro-N-(5-(thiazol-4-yl)pyridin-3-yl)-2-(trifluoromethoxy)benzenesulfonamide]
< 100 | COc1cccc(-c2cncc(NS(=O)(=O)c3cc(Br)ccc3OC)c2)c1 [Example III-47, 5-Bromo-2-methoxy-N-[5-(3-methoxy-phenyl)-pyridin-3-yl]-benzenesulfonamide]
< 100 | COC(=O)c1ccc(-c2cncc(NS(=O)(=O)c3cc(OC)ccc3OC)c2)cc1 [Example III-28, 4-[5-(2,5-Dimethoxy-benzenesulfonylamino)-pyridin-3-yl]-benzoic Acid methyl ester]
> 1000 | CCCCN(c1cnc2ccccc2c1)S(=O)(=O)c1cc(Br)ccc1OC [Example VII-5, 5-Bromo-N-butyl-2-methoxy-N-(quinolin-3-yl)benzenesulfonamide]
> 1000 | COc1ccc(OC)c(S(=O)(=O)Nc2ccc(N)nc2)c1 [Example VIII-4, 2,5-Dimethoxy-N-(6-Amino-pyridin-3-yl)-benzenesulfonamide]
> 1000 | COCCN(c1cnc2ccccc2c1)S(=O)(=O)c1cc(OC)ccc1OC [Example VII-17, 2,5-Dimethoxy-N-(2-methoxyethyl)-N-(quinolin-3-yl)benzenesulfonamide]
< 100 | COc1ccc(Br)cc1S(=O)(=O)Nc1cncc(-c2ncccn2)c1 [Example III-92, 5-Bromo-2-methoxy-N-(5-(pyrimidin-2-yl)pyridin-3-yl)benzenesulfonamide]
100 to 1000 | CNC(=O)c1cncc(NS(=O)(=O)c2cc(OC)ccc2OC)c1 [Example IV-37, 5-(2,5-Dimethoxyphenylsulfonamido)-N-methylnicotinamide]
> 1000 | COCCNc1ccc(NS(=O)(=O)c2cc(Br)ccc2OC)cn1 [Example VIII-11, 5-Bromo-2-methoxy-N-(6-((2-methoxyethyl)amino)pyridin-3-yl)benzenesulfonamide]
< 100 | COc1ccc(Cl)cc1S(=O)(=O)Nc1cncc(-c2ccco2)c1 [Example III-69, 5-Chloro-N-(5-(furan-2-yl)pyridin-3-yl)-2-methoxybenzenesulfonamide]
> 1000 | COc1ccc(C(=O)Nc2ccccc2)cc1S(=O)(=O)Nc1cccnc1 [Example I-19, 4-Methoxy-N-phenyl-3-(pyridin-3-ylsulfamoyl)-benzamide]
< 100 | COc1ccc(Br)cc1S(=O)(=O)Nc1cncc(-c2cnccn2)c1 [Example III-95, 5-Bromo-2-methoxy-N-(5-(pyrazin-2-yl)pyridin-3-yl)benzenesulfonamide]

Compound | IC50 [nM]
COc1ccc(OC)c(S(=O)(=O)Nc2cnc3ccc(C(=O)O)cc3c2)c1 [Example IX-9, 3-(2,5-Dimethoxy-benzenesulfonylamino)-quinoline-6-carboxylic Acid] | > 1000
NC(=O)c1cncc(NS(=O)(=O)c2cc(Br)ccc2OC(F)(F)F)c1 [Example XII-13, 5-(5-Bromo-2-(trifluoromethoxy)phenylsulfonamido)nicotinamide] | < 100
CNC(=O)c1ccc2ncc(NS(=O)(=O)c3cc(OC)ccc3OC)cc2c1 [Example IX-11, 3-(2,5-Dimethoxy-benzenesulfonylamino)-quinoline-6-carboxylic Acid Methylamide] | 100 to 1000
CCOC(=O)c1cncc(NS(=O)(=O)c2cc(Br)ccc2OC)c1 [Example IV-2, Ethyl 5-(5-bromo-2-methoxyphenylsulfonamido)nicotinate] | < 100
O=S(=O)(Nc1cncc(-c2cccs2)c1)c1cc(Cl)ccc1OC(F)(F)F [Example XI-14, 5-Chloro-N-(5-(thiophen-2-yl)pyridin-3-yl)-2-(trifluoromethoxy)benzenesulfonamide] | 100 to 1000
O=C(NC1CCCCC1)c1cncc(NS(=O)(=O)c2cc(Cl)ccc2OC(F)(F)F)c1 [Example XII-8, 5-(5-Chloro-2-(trifluoromethoxy)phenylsulfonamido)-N-cyclohexylnicotinamide] | 100 to 1000
O=S(=O)(Nc1cncc(-c2ccccn2)c1)c1cc(Br)ccc1OC(F)(F)F [Example XI-18, N-([2,3′-Bipyridin]-5′-yl)-5-bromo-2-(trifluoromethoxy)benzenesulfonamide] | 100 to 1000
COc1cc(Cl)c(Br)cc1S(=O)(=O)Nc1cccnc1 | < 100
COc1ccc(-c2ccccc2)cc1S(=O)(=O)Nc1cccnc1 [Example I-7, 4-Methoxy-biphenyl-3-sulfonic acid pyridin-3-ylamide] | 100 to 1000
COc1ccc(Br)cc1S(=O)(=O)Nc1cncc(-c2ccc(Br)cc2)c1 [Example III-23, 5-Bromo-N-[5-(4-bromo-phenyl)-pyridin-3-yl]-2-methoxy-benzenesulfonamide] | 100 to 1000
CNC(=O)c1ccc(OC)c(S(=O)(=O)Nc2cnc3ccccc3c2)c1 [Example II-15, 4-Methoxy-N-methyl-3-(quinolin-3-ylsulfamoyl)-benzamide] | < 100
COC(=O)c1ccc2ncc(NS(=O)(=O)c3cc(OC)ccc3OC)cc2c1 [Example IX-8, 3-(2,5-Dimethoxy-benzenesulfonylamino)-quinoline-6-carboxylic Acid Methyl Ester] | 100 to 1000
COc1ccc(OC)c(S(=O)(=O)Nc2cncc(-c3ccc(Br)cc3)c2)c1 [Example III-22, N-[5-(4-Bromo-phenyl)-pyridin-3-yl]-2,5-dimethoxy-benzenesulfonamide] | 100 to 1000
COc1ccc(OC)c(S(=O)(=O)Nc2cncc(-c3ccc(C(F)(F)F)cc3)c2)c1 [Example III-13, 2,5-Dimethoxy-N-(5-(4-(trifluoromethyl)phenyl)pyridin-3-yl)benzenesulfonamide] | 100 to 1000
CNC(=O)c1ccc2ncc(NS(=O)(=O)c3cc(Br)ccc3OC)cc2c1 [Example IX-7, 3-(5-Bromo-2-methoxy-benzenesulfonylamino)-quinoline-6-carboxylic Acid Methylamide] | < 100
COc1ccc(Br)cc1S(=O)(=O)Nc1cncc(-c2ccc(O)cc2)c1 [Example III-8, 5-Bromo-N-[5-(4-hydroxy-phenyl)-pyridin-3-yl]-2-methoxy-benzenesulfonamide] | < 100
